From EP4417607A1, “HETEROCYCLIC COMPOUND AS SOS1 INHIBITOR AND USES THEREOF” (Nanjing Zaiming Pharmaceutical Co., Ltd., priority 2021, dated 2023)

What was measured:
[1] = tested on: p-ERK pathway in H358 cells; test: p-ERK pathway inhibition in H358 cells (Advanced phospho-ERK (Thr202/Tyr204) cellular kit, HTRF); type: cell-based
Summary of the method: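 IC50 from an 8-point four-parameter fit of % inhibition of ERK Thr202/Tyr204 phosphorylation, measured by HTRF 665/620 ratio in lysates. H358 cells were seeded at 50000/well, starved overnight without serum, and exposed to compound 1 h at 37 °C; controls were cell-free (100%) and untreated (0%).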

[2] = tested on: H358 cells; test: H358 cell proliferation inhibition (CellTiter-Glo luminescent cell viability assay); type: cell-based; details: 7 days
Summary of the method: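 H358 cells seeded at 3000 cells/well in RPMI1640/10% FBS, treated with compound for 7 days at 37 °C/5% CO2. Viability read by CellTiter-Glo 3D luminescence, normalised to cell-free (100%) and compound-free (0%) controls; IC50 fitted from 8 concentrations by four-parameter curve.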

[3] = Homo sapiens, NCI-H358, 1 h compound incubation

Row | IC50 [1, 3] | IC50 ([2]; Homo sapiens, NCI-H358, 168 h) | IC50 ([1]; 1 h compound incubation) | IC50 [2] | Compound
1 | 180 nM | 129 nM | – | – | Cc1nc(N[C@H](C)c2cccc(S(F)(F)(F)(F)F)c2)c2cn(N3CCOCC3)c(=O)c(-c3ccc(C#N)nc3)c2n1 [Example 22, (R)-5-(2-methyl-6-morpholinyl-7-oxo-4-((1-(3-(pentafluoro-λ^6-sulfanyl)phenyl)ethyl)amino)-6,7-dihydropyrido[4,3-d]pyrimidin-8-yl)pyridinecarbonitrile]
2 | 92 nM | 90.9 nM | – | – | CC(=O)Nc1c(=O)n(C2(CF)CC2)cc2c(N[C@H](C)c3cccc(C(F)F)c3F)nc(C)nc12 [Example 83, (R)-N-(4-((1-(3-(difluoromethyl)-2-fluorophenyl)ethyl)amino)-6-(1-(fluoromethyl)cyclopropyl)-2-methyl-7-oxo-6,7-dihydropyrido[4,3-d]pyrimidine-8-yl)acetamide]
3 | 41.8 nM | 50.5 nM | – | – | Cc1nc(N[C@H](C)c2cccc(C(F)F)c2F)c2cn(C3(CF)CC3)c(=O)c(N3CCO[C@H](C)C3)c2n1 [Example 42, 4-(((R)-1-(3-(difluoromethyl)-2-fluorophenyl)ethyl)amino)-6-(1-(fluoromethyl)cyclopropyl)-2-methyl-8-((R)-2-methylmorpholine)pyrido[4,3-d]pyrimidine-7(6H)-one]
4 | 34.5 nM | 45.2 nM | – | – | Cc1nc(N[C@H](C)c2cccc(C(F)(F)F)c2C)c2cn(N3CCOCC3)c(=O)c(N3CCN(C)CC3)c2n1 [Example 70, (R)-2-methyl-4-((1-(2-methyl-3-(trifluoromethyl)phenyl)ethyl)amino)-8-(4-methylpiperazin-1-yl)-6-morpholinepyrido[4,3-d]pyrimidine-7(6H)-one]
5 | – | – | 40 nM | 105 nM | (R)-4-((1-(3-(difluoromethyl)-2-fluorophenyl)ethyl)amino)-6-(1-(fluoromethyl)cyclopropyl)-8-(2-hydroxyprop-2-yl)-2-methylpyrido[4,3-d]pyrimidine-7(6H)-one [Example 144]
6 | 41 nM | 97.2 nM | – | – | Cc1nc(N[C@H](C)c2cccc(C(F)(F)F)c2C)c2cn(C3(CF)CC3)c(=O)c(N3CCO[C@H](C)C3)c2n1 [Example 85, 6-(1-(fluoromethyl)cyclopropyl)-2-methyl-4-(((R)-1-(2-methyl-3-(trifluoromethyl)phenyl)ethyl)amino)-8-((R)-2-methylmorpholine)pyrido[4,3-d]pyrimidine-7(6H)-one]
7 | 48.9 nM | 134 nM | – | – | COc1c(=O)n(C2(CC#N)CC2)cc2c(N[C@H](C)c3cccc(C(F)F)c3F)nc(C)nc12 [Example 32, (R)-2-(1-(4-((1-(3-(difluoromethyl)-2-fluorophenyl)ethyl)amino)-8-methoxy-2-methyl-7-oxopyrido[4,3-d]pyrimidine-6(7H)-yl)cyclopropyl)acetonitrile]
8 | 57.5 nM | 145 nM | – | – | Cc1nc(N[C@H](C)c2cccc(C(F)F)c2F)c2cn(C3(CF)CC3)c(=O)c(-n3ncc4ncccc43)c2n1 [Example 104, (R)-4-((1-(3-(difluoromethyl)-2-fluorophenyl)ethyl)amino)-6-(1-(fluoromethyl)cyclopropyl)-2-methyl-8-(1H-pyrazolo[4,3-b]pyridin-1-yl)pyrido[4,3-d]pyrimidine-7(6H)-one]
9 | 126 nM | 132 nM | – | – | Cc1nc(N[C@H](C)c2cccc(C(F)F)c2F)c2cn(C3(CF)CC3)c(=O)c(-c3cnn4c3COCC4)c2n1 [Example 176]
10 | 107 nM | 35.7 nM | – | – | COc1c(=O)n(N2CCOCC2)cc2c(N[C@H](C)c3cccc(S(F)(F)(F)(F)F)c3)nc(C)nc12 [Example 25]
11 | 75.6 nM | 52.7 nM | – | – | Cc1nc(N[C@H](C)c2cccc(C#N)c2C)c2cn(C3(CF)CC3)c(=O)c(N3CCOCC3(C)C)c2n1 [Example 171, (R)-3-(1-((8-(3,3-dimethylmorpholinyl)-6-(1-(fluoromethyl)cyclopropyl)-2-methyl-7-oxo-6,7-dihydropyrido[4,3-d]pyrimidin-4-yl)amino)ethyl)-2-methylbenzonitrile]
12 | 76.8 nM | 79 nM | – | – | Cc1nc(N[C@H](C)c2cccc(C(F)F)c2F)c2cn(C3(CF)CC3)c(=O)c(S(C)(=O)=O)c2n1 [Example 66, (R)-4-((1-(3-(difluoromethyl)-2-fluorophenyl)ethyl)amino)-6-(1-(fluoromethyl)cyclopropyl)-2-methyl-8-(methylsulfonyl)pyrido[4,3-d]pyrimidine-7(6H)-one]
13 | 55.6 nM | 44 nM | – | – | Cc1nc(N[C@H](C)c2cccc(C(F)F)c2F)c2cn(C3(CF)CC3)c(=O)c(N3CCc4cn(C)nc4C3)c2n1 [Example 98, (R)-4-((1-(3-(difluoromethyl)-2-fluorophenyl)ethyl)amino)-6-(1-(fluoromethyl)cyclopropyl)-2-methyl-8-(2-methyl-2,4,5,7-tetrahydro-6H-pyrazolo[3,4-c]pyridin-6-yl)pyrido[4,3-d]pyrimidine-7(6H)-one]
14 | 138 nM | 51.5 nM | – | – | Cc1nc(N[C@H](C)c2cccc(C(F)F)c2F)c2cn(C3(CF)CC3)c(=O)c(N3CCC(N4CCCC4)CC3)c2n1 [Example 159]
15 | 41.7 nM | 73.1 nM | – | – | Cc1nc(N[C@H](C)c2cccc(C(F)F)c2F)c2cn(C3(CF)CC3)c(=O)c(N3CCC4(CC3)COC4)c2n1 [Example 151, (R)-4-((1-(3-(difluoromethyl)-2-fluorophenyl)ethyl)amino)-6-(1-(fluoromethyl)cyclopropyl)-2-methyl-8-(2-oxa-7-azaspiro[3.5]nonan-7-yl)pyrido[4,3-d]pyrimidine-7(6H)-one]
16 | 61.3 nM | 76.4 nM | – | – | Cc1nc(N[C@H](C)c2cccc(C#N)c2C)c2cn(N3CCOCC3)c(=O)c(N3CCOCC3)c2n1 [Example 108, (R)-2-methyl-3-(1-((2-methyl-6,8-dimorpholine-7-oxo-6,7-dihydropyrido[4,3-d]pyrimidin-4-yl)amino)ethyl)benzonitrile]

The next lines start with the compound.

Row | Compound | IC50 [1, 3] | IC50 ([2]; Homo sapiens, NCI-H358, 168 h) | IC50 ([1]; 1 h compound incubation) | IC50 [2]
17 | Cc1nc(N[C@H](C)c2cccc(C#N)c2C)c2cn(N3CCOCC3)c(=O)c(N3CCN(C)CC3)c2n1 [Example 76, (R)-2-methyl-3-(1-((2-methyl-8-(4-methylpiperazin-1-yl)-6-morpholine-7-oxo-6,7-dihydropyrido[4,3-d]pyrimidin-4-yl)amino)ethyl)benzonitrile] | 113 nM | 108 nM | – | –
18 | COc1ccc(-c2c(=O)n(N3CCOCC3)cc3c(N[C@H](C)c4cccc(C#N)c4C)nc(C)nc23)cn1 [Example 162] | 77.5 nM | 96.5 nM | – | –
19 | COC1(C)CCN(c2c(=O)n(C3(CF)CC3)cc3c(N[C@H](C)c4cccc(C(F)F)c4F)nc(C)nc23)CC1 [Example 155] | 59.8 nM | 124 nM | – | –
20 | Cc1nc(N[C@H](C)c2cccc(C(F)F)c2F)c2cn(N3CCOCC3)c(=O)c(N3CCOC[C@@H]3C)c2n1 [Example 68, 4-(((R)-1-(3-(difluoromethyl)-2-fluorophenyl)ethyl)amino)-2-methyl-8-((S)-3-methylmorpholine)-6-morpholinepyrido[4,3-d]pyrimidine-7(6H)-one] | 15.3 nM | 25.2 nM | – | –
21 | Cc1nc(N[C@H](C)c2cccc(C#N)c2C)c2cn(C3(CF)CC3)c(=O)c(-c3ccc(C#N)cc3)c2n1 [Example 71, (R)-3-(1-((8-(4-cyanophenyl)-6-(1-(fluoromethyl)cyclopropyl)-2-methyl-7-oxo-6,7-dihydropyrido[4,3-d]pyrimidin-4-yl)amino)ethyl)-2-methylbenzonitrile] | 156 nM | 114 nM | – | –
22 | Cc1nc(N[C@H](C)c2cccc(C(F)F)c2F)c2cn(C3(CF)CC3)c(=O)c(N3CC4CC(C3)O4)c2n1 [Example 174] | 20.4 nM | 36.2 nM | – | –
23 | CC[C@H]1COCCN1c1c(=O)n(C2(CF)CC2)cc2c(N[C@H](C)c3cccc(C(F)F)c3F)nc(C)nc12 [Example 58, 4-(((R)-1-(3-(difluoromethyl)-2-fluorophenyl)ethyl)amino)-8-((S)-3-ethylmorpholino)-6-(1-(fluoromethyl)cyclopropyl)-2-methylpyrido[4,3-d]pyrimidine-7(6H)-one] | 112 nM | 57.9 nM | – | –
24 | Cc1nc(N[C@H](C)c2cccc(C(F)F)c2F)c2cn(C3(CF)CC3)c(=O)c(N3CCOC[C@H]3C)c2n1 [Example 39, 4-(((R)-1-(3-(difluoromethyl)-2-fluorophenyl)ethyl)amino)-6-(1-(fluoromethyl)cyclopropyl)-2-methyl-8-((R)-3-methylmorpholine)pyrido[4,3-d]pyrimidine-7(6H)-one] | 38.7 nM | 32.7 nM | – | –
25 | Cc1nc(N[C@H](C)c2cccc(S(F)(F)(F)(F)F)c2)c2cn(N3CCOCC3)c(=O)c(N3CCN(C)CC3)c2n1 [Example 82, (R)-2-methyl-8-(4-methylpiperazin-1-yl)-6-morpholine-4-((1-(3-(pentafluoro-λ^6-sulfanyl)phenyl)ethyl)amino)pyrido[4,3-d]pyrimidine-7(6H)-one] | 74.6 nM | 30.4 nM | – | –
26 | Cc1nc(N[C@H](C)c2cccc(C(F)F)c2F)c2cn(C3(CF)CC3)c(=O)c(C3(O)CCN(C4COC4)CC3)c2n1 [Example 145, (R)-4-((1-(3-(difluoromethyl)-2-fluorophenyl)ethyl)amino)-6-(1-(fluoromethyl)cyclopropyl)-8-(4-hydroxy-1-(oxetan-3-yl)piperidin-4-yl)-2-methylpyrido[4,3-d]pyrimidine-7(6H)-one] | 138 nM | 64.6 nM | – | –
27 | Cc1nc(N[C@H](C)c2cccc(C(F)(F)F)c2C)c2cn(C3(CF)CC3)c(=O)c(N3CCOC[C@@H]3C)c2n1 [Example 56, 6-(1-(fluoromethyl)cyclopropyl)-2-methyl-4-(((R)-1-(2-methyl-3-(trifluoromethyl)phenyl)ethyl)amino)-8-((S)-3-methylmorpholine)pyrido[4,3-d]pyrimidine-7(6H)-one] | 42.4 nM | 17.4 nM | – | –
